# Laboratory results taken from patent US6683103B2, “Sulfonamides for treatment of endothelin-mediated disorders” (Texas Biotechnology Corporation, priority 1997, dated 2004).
# Legend:
# [1] = test system: ET-1-induced pressor response; assay: ET-1-induced pressor responses in conscious, autonomically blocked rats; format: in vivo, rat; conditions: in 30 min at dosages as low as 30 mg/kg
# Description: Animals were placed in a restrainer and allowed to regain consciousness. Thirty minutes later autonomic blockade was administered (atropine methyl nitrate, 3 mg/kg, IV, followed by propranalol, 2 mg/kg, IV). An hour later animals received a bolus injection of vehicle (0.5 ml) followed thirty minutes later by intravenous bolus administration of ET-1 (Control, 1 μg/kg). Following recovery from this challenge, test-compounds were administered by intravenous bolus administration (0.5 ml) and then re-challenged with ET-1 thirty minutes later. Results are expressed as the percent inhibition of the ET-1-induced pressor response after administration of the test compound compared to the pressor response induced by the control ET-1 challenge. In some cases a third ET-1 challenge was administered ninety minutes after administration of the test compound.
# human ETB receptor = molecular target: T1, human ETB receptor (Homo sapiens, UniProt P24530); assay: Binding Test #2: inhibition of 125I-ET-1 binding to ETB receptors (transfected COS7 cell membranes); conditions: Table 1; † incubation at 24° C.; read-out: ETB
# T1 construct: expressed in transfected cells; host or cells: COS7 cells
# T1 sequence (P24530 27-442): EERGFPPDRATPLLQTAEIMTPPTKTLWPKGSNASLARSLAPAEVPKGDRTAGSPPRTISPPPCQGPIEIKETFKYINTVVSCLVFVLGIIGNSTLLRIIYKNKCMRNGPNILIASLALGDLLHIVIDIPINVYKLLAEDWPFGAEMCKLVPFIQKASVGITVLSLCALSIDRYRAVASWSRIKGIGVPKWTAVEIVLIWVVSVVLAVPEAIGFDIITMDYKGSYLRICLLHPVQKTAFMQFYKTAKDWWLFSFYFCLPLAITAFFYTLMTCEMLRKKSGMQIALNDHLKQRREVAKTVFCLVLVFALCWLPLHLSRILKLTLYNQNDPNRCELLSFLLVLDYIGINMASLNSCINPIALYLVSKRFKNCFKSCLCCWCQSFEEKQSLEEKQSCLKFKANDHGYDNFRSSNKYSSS
# In short: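 Competition with 125I-ET-1 for binding to membranes from COS7 cells transfected with human ETB receptor, used at 1 μg/50 μl binding buffer. Membranes prepared in HEPES pH 7.4 with aprotinin, including a DNase/MnCl2 step at 37 °C for 30 min.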
SMILES,reduction of pressure [1],IC50 (human ETB receptor) [µM]
"Cc1cc2c(cc1CC(=O)c1sccc1S(=O)(=O)Nc1onc(C)c1Cl)OCO2 [N-(4-chloro-3-methyl-5-isoxazolyl)-2-[2-methyl-4,5-(methylenedioxy)phenylacetyl]thiophene-3-sulfonamide]",about 30%,9
"Cc1noc(NS(=O)(=O)c2ccsc2C(=O)Cc2ccc3c(c2)OCO3)c1Cl [N-(4-chloro-3-methyl-5-isoxazolyl)-2-[(3,4-(methylenedioxy)phenylacetyl]thiophene-3-sulfonamide]",about 30%,6.5
